These results are taken from US8129396B2, “2-[1H-benzimidazol-2(3H)-ylidene]-2-(pyrimidin-2-yl)acetamides and 2-[benzothiazol-2(3H)-ylidene]-2-(pyrimidin-2-yl)acetamides as kinase inhibitors” (Telik, Inc., priority 2008, dated 2012).

Molecules are shown by their SMILES.

The subject of test [1] is p-H3 in HCT116 cells. Briefly: Histone phosphorylation (p-H3) assay. Format: cell-based. Particulars: Homo sapiens, HCT-116; HCT116 cells, 4 hr incubation; read-out: p-H3 IC50. In outline:
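HCT116 cells (2.5×10^4/well, attached overnight) treated 4 h with 8-point 3-fold compound dilutions at 0.5% DMSO. Lysates dot-blotted onto nitrocellulose and probed for p-H3 with β-actin on the same membrane, fluorescent secondary antibodies, Odyssey scan; duplicate wells.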

In test [2] the target is T1, Aurora B kinase (Homo sapiens, UniProt Q96GD4).
T1 construct: purchased BPS Bioscience
Put plainly: Aurora B kinase assay (IMAP fluorescence polarization). Format: biochemical. Particulars: 10 μM ATP; rounded to 1 significant figure; read-out: Aur-B IC50. In outline: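 Reaction started with 100 nM fluorescein-labelled PKAtide and 10 μM ATP, run 45 min at room temperature, then stopped with IMAP binding reagent (1:400). After 30 min shaking at room temperature, fluorescence polarization read; run in duplicate with solvent control.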
In general terms: Fluorescence polarisation rises when a labelled molecule tumbles more slowly, as on binding a larger partner.

Test [3] relates to HUVEC-2 (human umbilical vein endothelial cells). Briefly: HUVEC VEGF-dependent proliferation assay (BrdU). Format: cell-based. To be noted: VEGF (25 ng/mL)-dependent proliferation, read-out: HUVEC IC50. The procedure, abridged:
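HUVEC-2 cells on gelatin got serially diluted compound (0.5% DMSO final), and VEGF (25 ng/mL) was added 2 hr later. BrdU (10 μM) went in after one day, with labelling for another day. VEGF-dependent proliferation was read by BrdU detection, in triplicate.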

The target in test [4] is T2, Aurora A kinase (Homo sapiens, UniProt O14965).
T2 construct: purchased Upstate Biotech
T2 sequence (O14965 1-403): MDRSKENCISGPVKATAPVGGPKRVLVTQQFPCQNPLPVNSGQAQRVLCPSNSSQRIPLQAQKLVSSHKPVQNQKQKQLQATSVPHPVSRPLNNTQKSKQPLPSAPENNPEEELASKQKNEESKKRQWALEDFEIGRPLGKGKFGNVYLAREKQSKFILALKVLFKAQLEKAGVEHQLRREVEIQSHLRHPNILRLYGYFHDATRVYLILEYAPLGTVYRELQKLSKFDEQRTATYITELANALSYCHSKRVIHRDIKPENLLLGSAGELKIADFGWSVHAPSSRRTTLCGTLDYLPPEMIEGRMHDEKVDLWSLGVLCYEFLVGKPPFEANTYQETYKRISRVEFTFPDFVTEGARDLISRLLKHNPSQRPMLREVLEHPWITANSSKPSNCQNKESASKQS
Put plainly: Aurora A kinase assay (IMAP fluorescence polarization). Format: biochemical. To be noted: 10 μM ATP; rounded to 1 significant figure; read-out: Aur-A IC50. In outline:
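Compounds (eight 3-fold dilutions, 2.5% DMSO final) were preincubated 5 min at room temperature with Aurora A kinase in buffer with 1 mM DTT. Reaction with 100 nM fluorescein-PKAtide and 10 μM ATP ran 45 min at room temperature, then was stopped with IMAP binding reagent; fluorescence polarization was read after 30 min.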

Test [5] concerns HCT116 (human colon carcinoma) cells. Briefly: HCT116 cytotoxicity assay (CellTiter-Glo). The test is classed as cell-based. Particulars: HCT-116, 72 h, cytotoxicity, three days culture, read-out: HCT116 IC50.
In test [6] the test system is HCT116 (human colon carcinoma) xenograft. Put plainly: HCT116 xenograft assay, oral administration. Format: in vivo, athymic nu/nu mice. Particulars: 150 mg/Kg by gavage once/day on days 1-5 and 8-12; measured 9 days after last treatment. The method, then: Male athymic nu/nu mice, 6-8 weeks old (about 20 g), were implanted subcutaneously in the right fore flank with about 1×10^7 cells of the HCT116 (human colon carcinoma) line that had been grown in antibiotic-free medium for at least two passages. About 14-21 days after tumor transplantation, when the tumor weight was about 50-250 mg, the mice were assigned to treatment groups. […] Groups of mice were treated with compounds 39A, 40A, 60A, 75A, 95A, and 117A at 150 mg/Kg by gavage once/day on days 1-5 and 8-12 from the start of treatment, with vehicle control. Tumor growth inhibition was measured 9 days after the last day of treatment.

Test [7] deals with T3, VEGFR2 kinase (Homo sapiens, UniProt P35968).
T3 construct: purchased Cell Signaling Technology
Put plainly: VEGFR2 kinase assay. The test is classed as biochemical. To be noted: 6 μM ATP, 1 mM MnCl2; rounded to 1 significant figure. The procedure, abridged:
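VEGFR2 phosphorylates CSKtide with 6 μM ATP and 1 mM MnCl2 for 1 hr, otherwise following the Aurora A kinase protocol. Detection by IMAP fluorescence polarization, binding reagent diluted 1:1200 in 1:1 binding buffer A/B. Run in duplicate with solvent control.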

Test [8] relates to HL60 (human promyelocytic leukemia) cells. Briefly: HL60 cytotoxicity assay (CellTiter-Glo). Format: cell-based. To be noted: HL-60, 72 h, cytotoxicity, three days culture, read-out: HL60 IC50.
Test [9] has as its system HL60 (human promyelocytic leukemia) xenograft. Put plainly: HL60 xenograft assay, oral administration. The test is classed as in vivo, athymic nu/nu mice. To be noted: for tumor inhibition relative to vehicle: dissolved at 10 mg/mL in 0.1M sodium acetate pH5; for inhibition of tumor growth compared to vehicle: 150 mg/Kg by gavage once/day on days 1-5 and 8-10, measured 1-2 days after last treatment. The method, then:
Male athymic nu/nu mice, 6-8 weeks old (about 20 g), were implanted subcutaneously in the right fore flank with about 1×10^7 cells of the HL60 (human promyelocytic leukemia) line that had been grown in antibiotic-free medium for at least two passages. About 6 days after tumor implantation, when the tumor weight was about 50-250 mg, the mice were assigned to treatment groups. […] […] Tumor growth inhibition was measured 1-2 days after the last day of treatment.

T3 sequence (P35968 20-1356): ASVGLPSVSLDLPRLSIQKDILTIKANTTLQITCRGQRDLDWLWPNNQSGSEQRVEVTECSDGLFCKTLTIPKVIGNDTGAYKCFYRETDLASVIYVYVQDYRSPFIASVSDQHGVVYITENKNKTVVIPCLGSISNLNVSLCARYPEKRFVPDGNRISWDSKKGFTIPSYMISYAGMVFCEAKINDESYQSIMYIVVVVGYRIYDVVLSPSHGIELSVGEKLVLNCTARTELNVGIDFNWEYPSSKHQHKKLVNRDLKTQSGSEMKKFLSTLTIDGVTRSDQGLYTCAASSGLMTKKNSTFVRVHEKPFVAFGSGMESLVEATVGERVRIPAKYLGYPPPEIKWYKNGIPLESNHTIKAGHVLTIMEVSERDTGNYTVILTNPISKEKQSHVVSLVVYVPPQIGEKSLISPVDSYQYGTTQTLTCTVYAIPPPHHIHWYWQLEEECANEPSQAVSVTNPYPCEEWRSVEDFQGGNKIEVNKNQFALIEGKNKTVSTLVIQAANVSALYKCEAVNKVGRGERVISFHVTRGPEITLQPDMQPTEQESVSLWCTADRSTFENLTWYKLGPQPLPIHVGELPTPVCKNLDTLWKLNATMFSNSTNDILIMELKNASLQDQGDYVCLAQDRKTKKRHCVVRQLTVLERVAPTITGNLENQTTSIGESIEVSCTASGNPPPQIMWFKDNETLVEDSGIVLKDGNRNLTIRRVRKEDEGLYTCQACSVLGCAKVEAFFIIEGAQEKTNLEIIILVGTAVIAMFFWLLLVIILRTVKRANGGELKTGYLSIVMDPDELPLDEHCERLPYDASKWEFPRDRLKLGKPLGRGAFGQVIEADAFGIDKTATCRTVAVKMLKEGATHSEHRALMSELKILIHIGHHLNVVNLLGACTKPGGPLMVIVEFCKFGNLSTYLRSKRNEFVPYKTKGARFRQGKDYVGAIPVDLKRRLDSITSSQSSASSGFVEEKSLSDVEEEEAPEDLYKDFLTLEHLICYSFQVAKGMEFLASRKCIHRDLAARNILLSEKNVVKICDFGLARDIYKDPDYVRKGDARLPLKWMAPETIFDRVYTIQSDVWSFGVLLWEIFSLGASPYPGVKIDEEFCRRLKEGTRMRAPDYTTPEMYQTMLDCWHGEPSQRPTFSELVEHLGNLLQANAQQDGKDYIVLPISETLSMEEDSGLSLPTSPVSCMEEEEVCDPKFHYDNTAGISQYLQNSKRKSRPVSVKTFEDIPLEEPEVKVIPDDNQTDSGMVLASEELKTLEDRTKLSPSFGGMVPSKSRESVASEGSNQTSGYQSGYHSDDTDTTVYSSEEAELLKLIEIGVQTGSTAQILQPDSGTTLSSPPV
T1 sequence (Q96GD4 whole entry): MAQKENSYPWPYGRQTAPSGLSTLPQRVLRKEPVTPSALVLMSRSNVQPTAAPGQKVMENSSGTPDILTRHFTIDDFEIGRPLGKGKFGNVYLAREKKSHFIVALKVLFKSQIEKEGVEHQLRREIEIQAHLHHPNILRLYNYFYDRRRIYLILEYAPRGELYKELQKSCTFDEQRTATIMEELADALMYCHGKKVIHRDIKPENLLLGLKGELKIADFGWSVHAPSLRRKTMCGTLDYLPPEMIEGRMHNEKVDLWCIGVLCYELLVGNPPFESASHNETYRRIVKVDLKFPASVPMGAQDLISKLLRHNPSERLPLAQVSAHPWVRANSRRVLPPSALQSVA

As usually defined, the IC50 is the concentration at which inhibition is half-maximal. In the case of `NC(=O)/C(=C1\Nc2ccc(C(=O)N3CCNCC3)cc2N1)c1nccc(C(F)(F)F)n1` [Compound 60A], the IC50 was 0.2 µM in [1]; 0.007 µM in test [2]; 0.08 µM in test [3]; 0.01 µM in [4]; 0.2 µM in test [5]; 0.005 µM in test [7]. In addition, the “inhibition of tumor growth compared to vehicle” value (“inhibition … compared to vehicle” for short) in test [6] worked out at 37%.

For `NC(=O)C(=C1Nc2ccc(C(=O)NCCCN3CCOCC3)cc2S1)c1nccc(C(F)(F)F)n1` (single isomer, unassigned) [Compound 40A, 2-(6-{[3-(4-morpholinyl)propyl]aminocarbonyl}-benzothiazol-2(3H)-ylidene)-2-(4-trifluoromethylpyrimidin-2-yl)acetamide], the IC50 in test [1] was 0.5 µM; in test [2], 0.007 µM; in test [3] it was 0.03 µM; in test [4] it was 0.003 µM; in [5], 0.2 µM; in test [8], 7 µM. The molecule further displayed a 50% inhibitory concentration (IC50) in [7] of 0.003 µM. Further, the “inhibition … compared to vehicle” value in [6] worked out at 18%.

For `CCN(C(=O)C1CCN(C)CC1)c1ccc2c(c1)N/C(=C(/C(N)=O)c1nccc(C(F)(F)F)n1)N2` [Compound 141A], the IC50 in test [1] is 0.3 µM; in test [2] it was 0.006 µM; in test [3], 0.02 µM; in test [4], 0.004 µM; in [5] it was 0.9 µM; in test [8], 1 µM. This molecule also came in with an IC50 in test [7] of 0.04 µM. Moreover, in [9], the “tumor inhibition relative to vehicle” value is on record as 49%.

In the case of `CN1CCCC[C@@H]1C(=O)Nc1ccc2c(c1)N/C(=C(/C(N)=O)c1nccc(C(F)(F)F)n1)N2` [Compound 143A], the IC50 in [1] worked out at 0.2 µM; in [2], 0.006 µM; in [3], 0.08 µM; in test [4] it was 0.004 µM; in test [5], 0.3 µM; in [8], 0.3 µM. The IC50 in test [7] came to 0.03 µM. The “tumor inhibition relative to vehicle” value in test [9] worked out at 65%.

As to `NC(=O)/C(=C1\Nc2ccc(NC(=O)CCCN3CCOCC3)cc2N1)c1nccc(C(F)(F)F)n1` [Compound 85A], the IC50 in test [1] is 0.05 µM; in test [2] it was 0.004 µM; in [3], 0.02 µM; in test [4], 0.005 µM; in test [5], 0.3 µM; in test [8] it was 0.06 µM. The same molecule yielded an IC50 in test [7] of 0.02 µM. In addition, the “inhibition … compared to vehicle” value in [9] stood at 45%.

In the case of `NC(=O)C(=C1Nc2ccc(OCCn3ccnc3)cc2S1)c1nccc(C(F)(F)F)n1` (single isomer, unassigned) [Compound 117A, 2-{6-[2-(1H-imidazol-1-yl)ethoxy]benzothiazol-2(3H)-ylidene}-2-(4-trifluoromethylpyrimidin-2-yl)acetamide], the IC50 was 0.3 µM in test [1]; 0.008 µM in test [2]; 0.06 µM in test [3]; 0.01 µM in test [4]; 0.8 µM in test [5]; 0.02 µM in test [7]. In addition, the “inhibition … compared to vehicle” value in test [6] is recorded as 42%.

Regarding `CCN(CCCN1CCOCC1)C(=O)c1ccc2c(c1)N/C(=C(/C(N)=O)c1nccc(C(F)(F)F)n1)N2` [Compound 41A], the half-maximal inhibitory concentration (IC50) in test [1] worked out at 0.1 µM; in test [2], 0.004 µM; in test [3], 0.2 µM; in test [4] it was 0.006 µM; in [5], 0.7 µM; in [8] it was 0.1 µM. Moreover, it took 0.004 µM to reach half-maximal inhibition in test [7] (IC50). Also, the “inhibition … compared to vehicle” value in test [9] came out at 81%.

On to `CN1CCCC[C@H]1C(=O)Nc1ccc2c(c1)N/C(=C(/C(N)=O)c1nccc(C(F)(F)F)n1)N2` [Compound 142A], for which the IC50 in test [1] was 0.3 µM; in test [2] it was 0.004 µM; in test [3] it was 0.09 µM; in test [4] it was 0.002 µM; in test [5] it was 0.3 µM; in [8], 0.2 µM. Besides, half-maximal inhibition in [7] (IC50) was put at 0.01 µM. For the same molecule, the “tumor inhibition relative to vehicle” value in test [9] is given as 89%.

Regarding `CN1CCC[C@H]1C(=O)Nc1ccc2c(c1)N/C(=C(/C(N)=O)c1nccc(C(F)(F)F)n1)N2` [Compound 77A], the IC50 in test [1] was 0.1 µM; in [2], 0.007 µM; in test [3], 0.09 µM; in test [4] it was 0.008 µM; in test [5] it was 0.2 µM; in [8], 0.3 µM. The molecule also gave an IC50 in test [7] of 0.009 µM. Besides, in [9], the “inhibition … compared to vehicle” value is 75%.

For `NC(=O)/C(=C1\Nc2ccc(CCN3CCOCC3)cc2S1)c1nccc(C(F)(F)F)n1` [Compound 101A], the IC50 turned out to be 1 µM in test [1]; 0.009 µM in [2]; 0.05 µM in test [3]; 0.007 µM in test [4]; 1 µM in test [5]; 2 µM in test [8]. Half-maximal inhibition in [7] (IC50) was put at 0.02 µM. Moreover, the “inhibition … compared to vehicle” value in test [9] is 38%.

As for `CCN(CCCN1CCOCC1)C(=O)c1ccc2c(c1)S/C(=C(/C(N)=O)c1nccc(C(F)(F)F)n1)N2` [Compound 42A], the IC50 in test [1] was 0.3 µM; in test [2], 0.006 µM; in test [3], 0.04 µM; in test [4], 0.01 µM; in test [5], 0.5 µM; in test [8] it was 0.03 µM. The molecule further showed an IC50 in test [7] of 0.02 µM.

Consider `NC(=O)/C(=C1\Nc2ccc(Cn3ccnc3)cc2N1)c1nccc(C(F)(F)F)n1` [Compound 90A], for which the IC50 in [1] worked out at 0.07 µM; in test [2], 0.009 µM; in [3] it was 0.09 µM; in test [4] it was 0.004 µM; in test [5], 0.2 µM; in [8], 0.1 µM. The molecule also gave an IC50 in test [7] of 0.004 µM.

For the molecule `NC(=O)/C(=C1\Nc2ccc(C(=O)N3CCNCC3)cc2S1)c1nccc(C(F)(F)F)n1` [Compound 61A], the IC50 in [1] is 0.03 µM; in [2], 0.01 µM; in [3], 0.02 µM; in [4] it was 0.02 µM; in test [5], 0.1 µM; in test [8] it was 0.2 µM. This molecule also had an IC50 in [7] of 0.004 µM.

For the molecule `CN(C)CC(=O)Nc1ccc2c(c1)S/C(=C(/C(N)=O)c1nccc(C(F)(F)F)n1)N2` [Compound 74A], the IC50 amounted to 0.2 µM in [1]; 0.01 µM in test [2]; 0.08 µM in [3]; 0.02 µM in [4]; 0.3 µM in [5]; 0.04 µM in test [8]. The same molecule had an IC50 in test [7] of 0.02 µM.

On to `NC(=O)/C(=C1\Nc2ccc(C(=O)NCCn3ccnc3)cc2S1)c1nccc(C(F)(F)F)n1` [Compound 47A], for which the IC50 in test [1] came out at 0.2 µM; in [2], 0.006 µM; in test [3], 0.004 µM; in test [4], 0.004 µM; in test [5] it was 0.3 µM; in test [8], 0.3 µM. Also, the IC50 in test [7] worked out at 0.02 µM.
